Data from patent publication US8906925B2, “Pyrido[4,3-B]indoles containing rigid moieties” (Medivation Technologies, Inc., priority 2008, dated 2014).

Legend:
histamine receptor H1 = histamine receptor H1 (Homo sapiens, UniProt P35367); test: Histamine H1 radioligand binding ([3H]Pyrilamine); conditions: read-out: Histamine Binding (1 μM) H1, percent inhibition of specific binding, 1 μM
How it was run: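 Values are percent inhibition of specific [3H]pyrilamine (1.2 nM) binding with compounds at ≤1 μM (1% DMSO vehicle); 180 min incubation at 25 °C, pH 7.4 Tris buffer, on CHO-expressed human H1 receptor; 1 μM pyrilamine defined nonspecific binding, bound ligand counted after filtration.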

[1] = target: human dopamine D2L receptor (Homo sapiens, UniProt P14416); test: Dopamine D2L radioligand binding ([3H]Spiperone); conditions: compound at 1 μM; […] [3H]Spiperone; read-out: Inhibition of ligand binding, Dopamine D2L (percent inhibition of specific binding)
Source text: Non-specific binding was estimated in the presence of […] Haloperidol. Receptor proteins were filtered and washed, the filters were then counted to determine [^3H]Spiperone specifically bound. […] Biochemical assay results are presented as the percent inhibition of specific binding in Table 9.

Chain of human dopamine D2L receptor (P14416 whole entry): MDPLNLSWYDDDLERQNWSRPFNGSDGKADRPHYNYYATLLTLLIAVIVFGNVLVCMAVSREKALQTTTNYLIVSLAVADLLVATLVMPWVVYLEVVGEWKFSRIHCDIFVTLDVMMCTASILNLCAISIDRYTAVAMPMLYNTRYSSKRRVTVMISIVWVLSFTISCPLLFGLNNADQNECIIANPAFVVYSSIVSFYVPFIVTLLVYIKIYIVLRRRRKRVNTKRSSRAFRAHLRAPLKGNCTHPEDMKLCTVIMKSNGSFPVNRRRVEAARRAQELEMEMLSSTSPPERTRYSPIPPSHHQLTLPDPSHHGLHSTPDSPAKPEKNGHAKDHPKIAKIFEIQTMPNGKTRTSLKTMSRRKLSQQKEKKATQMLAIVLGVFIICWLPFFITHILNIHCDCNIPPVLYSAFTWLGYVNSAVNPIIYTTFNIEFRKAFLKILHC
Chain of histamine receptor H1 (P35367 whole entry): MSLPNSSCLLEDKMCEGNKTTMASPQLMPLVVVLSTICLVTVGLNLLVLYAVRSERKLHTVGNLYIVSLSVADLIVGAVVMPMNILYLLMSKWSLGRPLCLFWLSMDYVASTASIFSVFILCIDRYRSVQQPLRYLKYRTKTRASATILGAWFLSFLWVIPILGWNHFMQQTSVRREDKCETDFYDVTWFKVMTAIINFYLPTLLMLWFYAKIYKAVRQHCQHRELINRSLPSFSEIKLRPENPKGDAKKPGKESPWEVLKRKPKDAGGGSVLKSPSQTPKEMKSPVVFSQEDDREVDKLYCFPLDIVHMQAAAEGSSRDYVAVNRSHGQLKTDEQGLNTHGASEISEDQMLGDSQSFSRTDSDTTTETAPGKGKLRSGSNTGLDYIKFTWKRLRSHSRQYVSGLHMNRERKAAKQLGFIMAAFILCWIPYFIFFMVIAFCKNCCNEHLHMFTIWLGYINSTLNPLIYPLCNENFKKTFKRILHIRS

inhibition at 1 µM (histamine receptor H1) [%]	inhibition at 1 µM [1] [%]	Compound
1	20	C/C(=C\n1c2c(c3cc(N4CCCCC4)ccc31)CN(C)CC2)c1ccncc1 [compound 445, (E)-2-methyl-8-(piperidin-1-yl)-5-(2-(pyridin-4-yl)prop-1-enyl)-2,3,4,5-tetrahydro-1H-pyrido[4,3-b]indole]
-4	42	C/C(=C\n1c2c(c3cc(N4CCCC4)ccc31)CN(C)CC2)c1ccncc1 [compound 446, (E)-2-methyl-5-(2-(pyridin-4-yl)prop-1-enyl)-8-(pyrrolidin-1-yl)-2,3,4,5-tetrahydro-1H-pyrido[4,3-b]indole]
-1	59	C/C(=C\n1c2c(c3cc(NC4CC4)ccc31)CN(C)CC2)c1ccncc1 [compound 447, (E)-N-cyclopropyl-2-methyl-5-(2-(pyridin-4-yl)prop-1-enyl)-2,3,4,5-tetrahydro-1H-pyrido[4,3-b]indol-8-amine]
-10	79	C/C(=C\n1c2c(c3cc(NC4CCC4)ccc31)CN(C)CC2)c1ccncc1 [compound 448, (E)-N-cyclobutyl-2-methyl-5-(2-(pyridin-4-yl)prop-1-enyl)-2,3,4,5-tetrahydro-1H-pyrido[4,3-b]indol-8-amine]
-7	59	C/C(=C\n1c2c(c3cc(NCCO)ccc31)CN(C)CC2)c1ccncc1 [compound 449, (E)-2-(2-methyl-5-(2-(pyridin-4-yl)prop-1-enyl)-2,3,4,5-tetrahydro-1H-pyrido[4,3-b]indol-8-ylamino)ethanol]
43	35	C/C(=C\n1c2c(c3cc(N(C)C)ccc31)CN(C)CC2)c1ccncc1 [compound 450, (E)-N,N,2-trimethyl-5-(2-(pyridin-4-yl)prop-1-enyl)-2,3,4,5-tetrahydro-1H-pyrido[4,3-b]indol-8-amine]
99	70	Cc1ccc2c(c1)c1c(n2/C=C(\F)c2cccs2)CCN(C)C1 [compound 451]
18	71	C/C(=C\n1c2c(c3cc(C)ccc31)CN(C)CC2)c1cc(F)c(O)c(F)c1 [compound 452, (E)-4-(1-(2,8-dimethyl-3,4-dihydro-1H-pyrido[4,3-b]indol-5(2H)-yl)prop-1-en-2-yl)-2,6-difluorophenol]
26	51	Cc1ccc2c(c1)c1c(n2/C=C(/c2ccccc2)c2ccncc2)CCN(C)C1 [compound 453, (Z)-2,8-dimethyl-5-(2-phenyl-2-(pyridin-4-yl)vinyl)-2,3,4,5-tetrahydro-1H-pyrido[4,3-b]indole]
21	80	COc1ccc(/C(C)=C/n2c3c(c4cc(Cl)ccc42)CN(C)CC3)cn1 [compound 454, (E)-8-chloro-5-(2-(6-methoxypyridin-3-yl)prop-1-enyl)-2-methyl-2,3,4,5-tetrahydro-1H-pyrido[4,3-b]indole]
13	56	Cc1ccc2c(c1)c1c(n2/C=C(\c2ccccc2)c2ccncc2)CCN(C)C1 [compound 455, (E)-2,8-dimethyl-5-(2-phenyl-2-(pyridin-4-yl)vinyl)-2,3,4,5-tetrahydro-1H-pyrido[4,3-b]indole]
17	80	COc1c(F)cc(/C(C)=C/n2c3c(c4cc(C)ccc42)CN(C)CC3)cc1F [compound 456, (E)-5-(2-(3,5-difluoro-4-methoxyphenyl)prop-1-enyl)-2,8-dimethyl-2,3,4,5-tetrahydro-1H-pyrido[4,3-b]indole]
37	53	C/C(=C\n1c2c(c3cc(C)ccc31)CN(C)CC2)c1cccc(C(=O)N(C)C)c1 [compound 457, (E)-3-(1-(2,8-dimethyl-3,4-dihydro-1H-pyrido[4,3-b]indol-5(2H)-yl)prop-1-en-2-yl)-N,N-dimethylbenzamide]
